Results: patent publication US5494907A, “11-β substituted-19-nor steroids” (Roussel UCLAF, priority 1993, dated 1996)

Target: T1, hPR (recombinant human progesterone receptor) (Homo sapiens, UniProt P06401)
T1 construct: made in house; host or cells: SF9 insect cells (ATCC CRL1711), recombinant baculovirus (BaculoGold Transfection Kit, PharMingen 21000K)
T1 sequence (P06401 1-933): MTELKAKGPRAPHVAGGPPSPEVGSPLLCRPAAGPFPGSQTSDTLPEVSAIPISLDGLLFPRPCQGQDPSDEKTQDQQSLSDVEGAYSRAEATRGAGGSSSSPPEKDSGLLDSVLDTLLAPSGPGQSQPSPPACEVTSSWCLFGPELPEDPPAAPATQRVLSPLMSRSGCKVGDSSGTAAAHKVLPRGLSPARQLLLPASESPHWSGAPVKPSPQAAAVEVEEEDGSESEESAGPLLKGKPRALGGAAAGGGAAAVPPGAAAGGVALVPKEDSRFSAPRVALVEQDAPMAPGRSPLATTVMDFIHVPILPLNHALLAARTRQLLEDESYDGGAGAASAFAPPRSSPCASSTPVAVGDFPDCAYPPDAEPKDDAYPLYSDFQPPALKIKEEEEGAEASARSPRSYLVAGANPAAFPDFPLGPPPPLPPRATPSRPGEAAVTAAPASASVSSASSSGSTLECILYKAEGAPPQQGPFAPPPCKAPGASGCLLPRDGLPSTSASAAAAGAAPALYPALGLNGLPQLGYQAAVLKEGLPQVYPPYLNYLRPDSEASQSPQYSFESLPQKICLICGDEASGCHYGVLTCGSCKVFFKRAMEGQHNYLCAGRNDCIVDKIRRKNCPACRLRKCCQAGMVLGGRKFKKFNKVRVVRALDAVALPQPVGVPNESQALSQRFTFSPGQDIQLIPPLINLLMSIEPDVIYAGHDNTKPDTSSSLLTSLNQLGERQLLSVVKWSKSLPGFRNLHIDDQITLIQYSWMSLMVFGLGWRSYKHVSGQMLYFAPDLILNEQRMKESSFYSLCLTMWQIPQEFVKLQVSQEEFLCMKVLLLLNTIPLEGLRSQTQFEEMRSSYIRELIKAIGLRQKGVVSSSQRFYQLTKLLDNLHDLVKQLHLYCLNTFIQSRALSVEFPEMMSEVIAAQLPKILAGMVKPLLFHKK
Assay: Relative bond affinity (RBA) on recombinant human progesterone receptor, displacement of tritiated 17α,21-dimethyl-19-nor-Δ4,9-pregnadien-3,20-dione
Type: binding
Conditions: for RBA hPR: Progesterone = 100, 0° C., 24 hours; for affinity for the progesterone receptor (in words): conclusion in words
Excerpt: 1--Activity on the hormonal receptors using either the natural hormonal receptor of a rat (AR), or the recombinant human receptor (PR, GR and ER).
Human progesterone receptor
The recombinant human progesterone receptor was obtained by superexpression in an insect-Baculovirus cell system by methodology described by WEBB et al. in Journal of Methods in Cell and Molecular Biology, (1990), Vol. 2 N° 4, pp. 173-188 and whose use is described for the expression of human hormonal receptors, for example the human glucocorticoid receptor (SRINIVASAN et al. Molecular Endocrinology, (1990), Vol. 4 N° 2, pp. 209-216).
The BaculoGold Transfection Kit was used (PharMingen, reference 21000K) to insert the cDNA fragment described by KASTNER et al. (The EMBO Journal, (1990), Vol. 9 N° 5, pp. 1603-1614), containing the region coding for the human progesterone receptor and to prepare the corresponding recombinant virus. The recombinant virus was used to express the progesterone receptor in SF9 insect cells (ATCC CRL1711), by the known methodology mentioned previously.
2×10^7 to 2.5×10^7 SF9 cells were cultivated in a […] "Falcon" flask in a TNM-FH "SIGMA" medium supplemented with 10% of foetal calf serum (FCS) and with 50 micrograms/ml of gentamycin. After infection, then incubation at 27° C. for 40 to 42 hours, the cells were lysed in 1 ml of lysis buffer (1) by a freezing-defrosting cycle which was repeated twice more. The supernatant containing the recombinant human progesterone receptor was kept in liquid nitrogen in doses of 1 ml. The supernatant was diluted at the time of use according to a dilution range varying from 1/10th to 1/100th with 10 mM Tris, 0.25 M saccharose, HCl buffer at pH 7.4 containing 0.1% gelatin and then was incubated at 0° C. for 24 hours with a constant concentration (T) of tritiated 17α,21-dimethyl-19-nor-Δ4,9-pregnadien-3,20-dione in the presence of increasing concentrations either of unlabelled progesterone (0-2500×10^-9 M), or of unlabelled product under test (1 to 25000×10^-9 M). The concentration of bound tritiated 17,21-dimethyl 19-nor-Δ4,9-[…] (B) was then measured in each incubate by the technique of adsorption with carbon dextran.
Calculation of the relative bond affinity (RBA).
The following 2 curves were traced: percentage of bound tritiated hormone B/BO as a function of the logarithm of the concentration of unlabelled reference hormone or as a function of the logarithm of the concentration of the unlabelled product under test.
The straight line of the following equation was determined:
BO=Concentration of bound tritiated hormone in the absence of any unlabelled product,
B=Concentration of bound tritiated hormone in the presence of a concentration X of unlabelled product,
B min=Concentration of bound tritiated hormone in the presence of a large excess of cold reference hormone (500 nM). The intersections of the straight line I50 and the curves allowed the evaluation of the concentrations of unlabelled reference hormone (CH) and of the unlabelled product under test (CX) which inhibited by 50% the specific binding of the tritiated hormone on the receptor.
The relative bond affinity (RBA) of the product under test was determined by the equation:
The RBA's of the reference products estradiol, progesterone, dexamethasone and testosterone were arbitrarily taken to be equal to 100.

SMILES	RBA hPR	affinity for the progesterone receptor (in words)
CCCCNS(=O)(=O)CCCCCOc1ccc([C@H]2C[C@]3(C)[C@@H](O)CC[C@H]3[C@@H]3CCc4cc(O)ccc4[C@H]32)cc1 [Example 2, N-butyl-5-[4-(Δ1,3,5(10)-estratrien-3,17β-diol-11β-yl)phenoxy]-pentanesulfonamide]	37	marked affinity
CCCCN(C)S(=O)(=O)CCCCCOc1ccc([C@H]2C[C@]3(C)[C@@H](O)CC[C@H]3[C@@H]3CCc4cc(O)ccc4[C@H]32)cc1 [Example 7, N-butyl-5-[4-(Δ1,3,5(10)-estratrien-3,17β-diol-11β-yl)phenoxy]-N-methyl-pentanesulfonamide]	111	marked affinity
CN(CC(F)(F)C(F)(F)C(F)(F)F)S(=O)(=O)CCCCCOc1ccc([C@H]2C[C@]3(C)[C@@H](O)CC[C@H]3[C@@H]3CCc4cc(O)ccc4[C@H]32)cc1 [Example 8, 5-[4-(Δ1,3,5(10)-estratrien-3,17β-diol-11βyl)-Phenoxy]-N-(2,2,3,3,4,4,4-heptafluorobutyl)-N-methyl-pentanesulfonamide]	55	marked affinity
